Laboratory results taken from ChEMBL document CHEMBL3301562, “MMV Box screening against Plasmodium falciparum protein kinases and aminoacyl tRNA synthetases”.

Legend:
Assay type in all cases: functional
[1] = target: T1, Cdk-related protein kinase 6 (Plasmodium falciparum, UniProt O77239); test: Final concentrations were 1.5 uM ATP, 5 mM MnCl2, and 15 ug/ml PK6 in a buffer of 100 mM Tris-HCl (pH 7.5). 50 ug/mL MBP was provided as the substrate; 10 uM staurosporine was used as a control inhibitor. Incubation time was 3 hours and 40 minutes.The catalytic activity of each kinase was considered proportional to ATP consumed, as determined from measurements of residual [ATP] with the luciferase-based reagent Kinase-Glo (Promega) following incubation. Luminescence (proportional to residual [ATP]) was measured on the plate readers FLx800 (BioTek Instruments, Winooski, VT, USA) and MicroBeta2.
T1 sequence (O77239 whole entry): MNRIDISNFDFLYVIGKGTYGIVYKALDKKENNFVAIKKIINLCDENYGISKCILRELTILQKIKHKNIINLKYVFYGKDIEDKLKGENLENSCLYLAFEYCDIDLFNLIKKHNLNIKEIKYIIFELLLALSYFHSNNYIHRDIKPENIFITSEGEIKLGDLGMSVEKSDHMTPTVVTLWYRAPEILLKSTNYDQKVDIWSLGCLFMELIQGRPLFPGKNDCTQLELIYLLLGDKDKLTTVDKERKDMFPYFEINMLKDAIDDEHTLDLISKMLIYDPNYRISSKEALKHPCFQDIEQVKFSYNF

[2] = target: T2, Putative uncharacterized protein pk7 (Plasmodium falciparum, UniProt O96214); test: Final concentrations were 1 uM ATP, 2 mM DTT, 20 mM MgCl2, 2 mM MnCl2, 0.01% BSA, and 6 ug/ml PK7, in a buffer of 20 mM Tris-HCl (pH 7.5). The enzyme itself was the only substrate present (since autophosphorylation occurs); 100 uM 1NA-PP1 was used as a control inhibitor. Incubation time was 3 hours.
T2 sequence (O96214 whole entry): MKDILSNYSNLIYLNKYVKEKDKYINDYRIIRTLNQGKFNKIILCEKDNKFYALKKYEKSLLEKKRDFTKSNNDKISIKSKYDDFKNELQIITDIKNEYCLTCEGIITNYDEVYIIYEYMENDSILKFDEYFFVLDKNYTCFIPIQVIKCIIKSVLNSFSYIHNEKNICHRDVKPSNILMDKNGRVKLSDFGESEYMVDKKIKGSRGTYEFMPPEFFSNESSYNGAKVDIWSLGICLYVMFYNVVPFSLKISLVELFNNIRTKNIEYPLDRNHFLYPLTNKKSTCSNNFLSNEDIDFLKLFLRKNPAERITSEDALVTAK

[3] = target: T3, Mitogen-activated protein kinase (Plasmodium falciparum, UniProt Q25917); test: Final concentrations were 1 uM ATP, 0.5 mM DTT, 1 mM MgCl2, 0.5 mg/mL BSA, and 10 ug/ml MAP2 in a buffer of 50 mM HEPES (pH 7.0). 0.5 mg/mL histone III-S served as the substrate (13); 100 uM AMP-PNP, an ATP analog, was used as a control inhibitor. Incubation time was 4 hours.
T3 sequence (Q25917 whole entry): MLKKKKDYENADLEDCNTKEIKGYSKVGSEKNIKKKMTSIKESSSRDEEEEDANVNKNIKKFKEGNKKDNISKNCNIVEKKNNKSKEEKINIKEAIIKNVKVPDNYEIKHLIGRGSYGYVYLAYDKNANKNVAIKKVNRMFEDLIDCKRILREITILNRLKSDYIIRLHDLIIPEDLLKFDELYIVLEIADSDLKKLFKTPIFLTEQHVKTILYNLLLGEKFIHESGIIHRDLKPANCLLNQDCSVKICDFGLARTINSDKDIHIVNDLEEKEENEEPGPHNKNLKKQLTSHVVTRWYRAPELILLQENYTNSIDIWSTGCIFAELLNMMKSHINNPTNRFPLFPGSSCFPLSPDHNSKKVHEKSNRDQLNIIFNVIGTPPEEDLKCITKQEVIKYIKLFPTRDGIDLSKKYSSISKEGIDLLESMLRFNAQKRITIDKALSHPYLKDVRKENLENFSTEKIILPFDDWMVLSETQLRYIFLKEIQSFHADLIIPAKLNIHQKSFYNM

[4] = target: Calcium-dependent protein kinase 1 (Plasmodium falciparum, UniProt P62344); test: MMV: CDPK1 Protein kinase inhibition assay using recombinant PfCDPK1, syntide 2 peptide substrate, ATP and KinaseGlo to measure % inhibition at 1 uM MMV box compound.
[5] = target: T4, Calcium-dependent protein kinase 4 (Plasmodium falciparum (isolate 3D7), UniProt Q8IBS5); test: MMV: CDPK4 Protein kinase inhibition assay using recombinant PfCDPK4, syntide2 peptide substrate, ATP and KinaseGlo to measure % inhibition at 1 uM MMV box compound.
T4 sequence (Q8IBS5 whole entry): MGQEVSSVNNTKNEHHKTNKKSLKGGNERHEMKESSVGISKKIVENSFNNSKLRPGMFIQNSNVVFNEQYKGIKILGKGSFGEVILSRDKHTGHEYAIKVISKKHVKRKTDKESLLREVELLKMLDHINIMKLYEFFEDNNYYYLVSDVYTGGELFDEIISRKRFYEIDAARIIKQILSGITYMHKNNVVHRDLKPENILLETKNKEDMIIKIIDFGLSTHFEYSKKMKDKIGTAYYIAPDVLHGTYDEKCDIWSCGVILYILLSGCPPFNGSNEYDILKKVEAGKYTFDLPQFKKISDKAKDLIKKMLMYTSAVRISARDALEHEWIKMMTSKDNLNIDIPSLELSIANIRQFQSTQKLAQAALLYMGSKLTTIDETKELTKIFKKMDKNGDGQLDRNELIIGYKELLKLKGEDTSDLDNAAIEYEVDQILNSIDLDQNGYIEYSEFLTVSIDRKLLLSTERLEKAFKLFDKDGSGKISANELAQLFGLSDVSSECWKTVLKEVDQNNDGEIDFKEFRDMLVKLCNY

[6] = target: T5, Proline--tRNA ligase (Plasmodium falciparum (isolate 3D7), UniProt Q8I5R7); test: MMV: ProRS recombinant Plasmodium falciparum Prolyl-tRNA-synthetase, assay with yeast tRNA, ATP, and proline and 3 uM MMV malaria box compound, assay read out with kinase glo as % inhibition.
T5 sequence (Q8I5R7 whole entry): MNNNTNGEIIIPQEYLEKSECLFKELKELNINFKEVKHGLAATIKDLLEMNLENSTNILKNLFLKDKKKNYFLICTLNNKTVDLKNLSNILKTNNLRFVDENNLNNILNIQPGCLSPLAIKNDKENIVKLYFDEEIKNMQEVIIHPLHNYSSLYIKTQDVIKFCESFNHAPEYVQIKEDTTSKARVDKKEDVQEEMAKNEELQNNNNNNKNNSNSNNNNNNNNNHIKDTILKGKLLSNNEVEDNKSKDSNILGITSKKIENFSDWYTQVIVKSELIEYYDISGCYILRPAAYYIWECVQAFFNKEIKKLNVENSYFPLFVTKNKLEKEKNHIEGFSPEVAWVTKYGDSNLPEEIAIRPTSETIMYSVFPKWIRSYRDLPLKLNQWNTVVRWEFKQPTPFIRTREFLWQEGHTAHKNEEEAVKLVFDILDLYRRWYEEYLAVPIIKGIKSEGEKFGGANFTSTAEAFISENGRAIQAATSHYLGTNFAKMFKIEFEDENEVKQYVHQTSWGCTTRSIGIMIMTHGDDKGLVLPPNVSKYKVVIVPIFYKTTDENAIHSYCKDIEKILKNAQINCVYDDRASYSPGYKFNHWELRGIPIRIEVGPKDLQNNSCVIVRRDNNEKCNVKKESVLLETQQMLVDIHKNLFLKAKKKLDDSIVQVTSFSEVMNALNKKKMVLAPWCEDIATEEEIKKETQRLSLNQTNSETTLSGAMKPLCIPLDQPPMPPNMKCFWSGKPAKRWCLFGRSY

[7] = target: Lysine--tRNA ligase (Plasmodium falciparum (isolate 3D7), UniProt Q8IDJ8); test: MMV: KRS recombinant Plasmodium falciparum Lysyl-tRNA-synthetase, assay with yeast tRNA, ATP, and lysine and 3 uM MMV malaria box compound, assay read out with kinase glo as % inhibition.
Lysine--tRNA ligase, sequence (Q8IDJ8 whole entry): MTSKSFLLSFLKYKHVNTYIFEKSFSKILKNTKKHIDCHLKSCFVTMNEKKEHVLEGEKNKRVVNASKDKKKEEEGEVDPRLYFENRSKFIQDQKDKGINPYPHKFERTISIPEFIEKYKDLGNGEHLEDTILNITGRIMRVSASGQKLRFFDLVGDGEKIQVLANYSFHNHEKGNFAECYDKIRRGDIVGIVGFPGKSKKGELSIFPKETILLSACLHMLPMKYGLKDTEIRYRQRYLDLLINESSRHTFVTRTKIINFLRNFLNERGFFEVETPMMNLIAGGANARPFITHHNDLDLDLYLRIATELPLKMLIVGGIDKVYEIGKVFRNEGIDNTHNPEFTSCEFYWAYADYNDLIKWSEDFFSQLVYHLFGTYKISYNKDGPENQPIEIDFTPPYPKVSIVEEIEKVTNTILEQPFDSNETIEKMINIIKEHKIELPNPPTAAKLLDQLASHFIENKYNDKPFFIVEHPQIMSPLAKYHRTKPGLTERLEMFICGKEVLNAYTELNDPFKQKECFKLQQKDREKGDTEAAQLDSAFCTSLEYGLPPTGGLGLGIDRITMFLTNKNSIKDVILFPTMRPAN

Calcium-dependent protein kinase 1, sequence (P62344 whole entry): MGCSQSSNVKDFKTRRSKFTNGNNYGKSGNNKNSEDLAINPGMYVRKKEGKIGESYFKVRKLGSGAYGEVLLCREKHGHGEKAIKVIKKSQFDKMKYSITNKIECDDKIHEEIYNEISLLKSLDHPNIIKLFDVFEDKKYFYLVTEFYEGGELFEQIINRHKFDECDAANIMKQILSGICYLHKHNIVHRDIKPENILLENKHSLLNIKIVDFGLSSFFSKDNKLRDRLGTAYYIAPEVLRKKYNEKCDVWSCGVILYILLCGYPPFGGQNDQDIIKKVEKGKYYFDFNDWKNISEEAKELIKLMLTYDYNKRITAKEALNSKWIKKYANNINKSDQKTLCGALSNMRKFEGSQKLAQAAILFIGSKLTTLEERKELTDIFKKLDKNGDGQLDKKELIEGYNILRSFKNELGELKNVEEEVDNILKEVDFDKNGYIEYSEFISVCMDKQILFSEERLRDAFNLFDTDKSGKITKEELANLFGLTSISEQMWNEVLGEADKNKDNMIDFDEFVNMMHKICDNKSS

SMILES | IC50 [1] | IC50 [2] | IC50 [3] | IC50 [4] | IC50 [5] | IC50 [6] | IC50 [7]
COc1cccc(C(=O)Nc2ccc(-c3nc4ccccc4[nH]3)cc2)c1 | > 1000 nM | > 1000 nM | > 1000 nM | > 1000 nM | > 1000 nM | > 2500 nM | > 2500 nM
Cc1ccc(-c2nc3ccccc3o2)cc1NCc1cc(Cc2ccccc2)ccc1O | > 1000 nM | > 1000 nM | > 1000 nM | > 1000 nM | > 1000 nM | > 2500 nM | > 2500 nM
Clc1ccc2c(N3CCCC3)ccnc2c1 | > 1000 nM | > 1000 nM | > 1000 nM | > 1000 nM | > 1000 nM | > 2500 nM | > 2500 nM
O=C(Nc1ccc(Cl)cc1C(=O)Nc1ccncc1)c1ccc(Cl)cc1Cl | > 1000 nM | > 1000 nM | > 1000 nM | > 1000 nM | > 1000 nM | > 2500 nM | > 2500 nM
CCOC(=O)c1ccc2[nH]c(-c3ccccc3)cc(=O)c2c1 | > 1000 nM | > 1000 nM | > 1000 nM | > 1000 nM | > 1000 nM | > 2500 nM | > 2500 nM
CCOc1cc(CNC(C)C(O)c2ccccc2)cc(Cl)c1OCC (configuration not stated) | > 1000 nM | > 1000 nM | > 1000 nM | > 1000 nM | > 1000 nM | > 2500 nM | > 2500 nM
COc1ccc(C(=O)Nc2nonc2-c2ccc(OC)c(OC)c2)cc1Cl | > 1000 nM | > 1000 nM | > 1000 nM | > 1000 nM | > 1000 nM | > 2500 nM | > 2500 nM
CCCCc1c(C)nc2c(OC)cccc2c1O | > 1000 nM | > 1000 nM | > 1000 nM | > 1000 nM | > 1000 nM | > 2500 nM | > 2500 nM
COc1ccc(Br)cc1C1Nc2ccc3ccccc3c2C2=C1C(=O)CC(c1ccccc1)C2 (configuration not stated) | > 1000 nM | > 1000 nM | > 1000 nM | > 1000 nM | > 1000 nM | > 2500 nM | > 2500 nM
COc1ccccc1CNC(=O)CCn1c(=O)[nH]c2ccccc2c1=O | > 1000 nM | > 1000 nM | > 1000 nM | > 1000 nM | > 1000 nM | > 2500 nM | > 2500 nM
CCOC(=O)C1=C(C)N=c2sc(=Cc3cc(Cl)ccc3O)c(=O)n2C1c1ccc(OC)cc1 (configuration not stated) | > 1000 nM | > 1000 nM | > 1000 nM | > 1000 nM | > 1000 nM | > 2500 nM | > 2500 nM
Cc1cc(Nc2ccc(OCc3ccccc3)cc2)nc2cc(O)ccc12 | > 1000 nM | > 1000 nM | > 1000 nM | > 1000 nM | > 1000 nM | > 2500 nM | > 2500 nM
COc1cc(C(=O)ON=C(N)Cc2cccc3ccccc23)cc(OC)c1OC | > 1000 nM | > 1000 nM | > 1000 nM | > 1000 nM | > 1000 nM | > 2500 nM | > 2500 nM
CN(N=O)C1=C(NC2CCCCC2)C(=O)c2ccccc2C1=O | > 1000 nM | > 1000 nM | > 1000 nM | > 1000 nM | > 1000 nM | > 2500 nM | > 2500 nM
COc1ccc(CCN2C(=O)c3[nH]nc(-c4cc(Cl)c(C)cc4O)c3C2c2ccccc2F)cc1 (configuration not stated) | > 1000 nM | > 1000 nM | > 1000 nM | > 1000 nM | > 1000 nM | > 2500 nM | > 2500 nM
CCN(CC)CCCNc1ccnc2cc3ccccc3cc12 | > 1000 nM | > 1000 nM | > 1000 nM | > 1000 nM | > 1000 nM | > 2500 nM | > 2500 nM
O=C1CC(O)(C(F)(F)C(F)(F)F)Oc2ccccc21 (configuration not stated) | > 1000 nM | > 1000 nM | > 1000 nM | > 1000 nM | > 1000 nM | > 2500 nM | > 2500 nM
COc1ccc(-c2nc3cc(Cc4ccc5[nH]c(-c6ccc(OC)cc6)nc5c4)ccc3[nH]2)cc1 | > 1000 nM | > 1000 nM | > 1000 nM | > 1000 nM | > 1000 nM | > 2500 nM | > 2500 nM
O=C(O)C1Cc2c([nH]c3ccccc23)C(c2ccc(Cl)cc2Cl)N1 (configuration not stated) | > 1000 nM | > 1000 nM | > 1000 nM | > 1000 nM | > 1000 nM | > 2500 nM | > 2500 nM
Cc1ccc(Nc2nc(NCCO)c3ccccc3n2)cc1C | > 1000 nM | > 1000 nM | > 1000 nM | > 1000 nM | > 1000 nM | > 2500 nM | > 2500 nM
CN(C)CCCNCc1ccc(-c2ccc(F)c(Cl)c2)o1 | > 1000 nM | > 1000 nM | > 1000 nM | > 1000 nM | > 1000 nM | > 2500 nM | > 2500 nM
